The target of experiment [1] is T1, HIF-2α HIS TAG-PASB Domain (Homo sapiens, UniProt Q99814).
T1 construct: 100 nM HIF-2α HIS TAG-PASB Domain
The experiment is described as follows: HIF-2α Scintillation Proximity Assay (SPA). It is filed as binding. As to conditions: displacement of tritiated probe N-(3-Chlorophenyl-4,6-t2)-4-nitrobenzo[c][1,2,5]oxadiazol-5-amine from HIF-2α PASB domain. The protocol:
Example 8: HIF-2α Scintillation Proximity Assay (SPA)
The total assay volume was about 100 μL in the following configuration: 2 μL compound in 100% DMSO, 88 μL buffer with protein and probe and 10 μL of SPA beads. The compound was diluted in a master plate consisting of a 10-point dose response with a 3-fold compound dilution from 100 μM to 5 nM. Assays were run on a 96-well plate in which one column, designated as the high signal control, contained DMSO with no compound and another column, designated as the low signal control, contained no protein. Prior to plating out of compound, a buffer solution, consisting of 25 mM TRIS pH 7.5 (Sigma), 150 mM NaCl (Sigma), 15% Glycerol (Sigma), 0.15% BSA (Sigma), 0.001% Tween-20 (Sigma), 150 nM N-(3-Chlorophenyl-4,6-t2)-4-nitrobenzo[c][1,2,5]oxadiazol-5-amine and 100 nM HIF-2α HIS TAG-PASB Domain, was made and allowed to equilibrate for 30 minutes. Compounds that were to be tested were then plated in to a 96-well white clear bottom Isoplate-96 SPA plate (Perkin Elmer). To the compounds was added 88 μL of the buffer solution, then the plate covered with a plastic cover and aluminum foil, placed onto a shaker and equilibrated for 1 hour. After equilibration, 10 μL of a 2 mg/mL solution of YSi Cu His tagged SPA beads (Perkin Elmer) were then added to each well of the plate, covered and equilibrated for another 2 hours. The plates were then removed from the shaker, placed into a 1450 LSC and luminescence counter MicroBeta Trilux (Perkin Elmer) to measure the extent of probe displacement. The percent inhibition was determined and IC50 values were calculated using the Dotmatics system based on the following equation: % inhibition=[(high control−sample)/(high control−low control)]×100.
On the technique in general: In a scintillation proximity assay essentially only radioactivity close to the scintillant gives light.

Experiment [2] relates to 786-O-Hif-Luc cells. Nature of the experiment: Luciferase Assay. It is filed as cell-based. As to conditions: HIF responsive element luciferase reporter, about 24 hours. The procedure:
Example 10: Luciferase Assay
786-O-Hif-Luc single clone cells were obtained by infecting 786-0 cells (ATCC® CRL-1932™) with commercial lentivirus that delivers a luciferase gene driven by multiple HIF responsive elements (Cignal Lenti HIF Reporter (luc): CLS-007L, Qiagen) at Multiplicity of Infection (MOI) of 25 for 24 hours. The cells were replenished with fresh medium (Dulbecco's Modified Eagle's Medium (DMEM, D5796, Sigma) supplemented with 10% FBS (F6178, Sigma), 100 units penicillin and 100 μg streptomycin/mL (P4333, Sigma)) for another 24 hours. A pool of infected cells were then selected against 2 μg/mL of puromycin (P8833, Sigma) for 10 days followed by limited dilution to select single clones. […] For the luciferase assay, about 7500 786-O-Hif-Luc cells in 90 μL growth medium were seeded into each well of a 96-well white opaque plate (08-771-26, Fisher scientific) a day before treatment with the layout presented in FIG. 2.
On treatment day, serial dilutions of 10× compound stocks were made in growth medium from 500×DMSO stocks, and 10 μL, of the 10× stocks were added to each well to make final concentrations as follows GAM): 20, 6.67, […], 0.74, 0.25, 0.08, 0.027, 0.009, 0.003, 0.001, and 0. Each concentration was tested in triplicate. After about 24 hours, luciferase activity was determined using ONE-Glo Luciferase Assay Reagent (E6110, Promega) following the manufacturer's recommended procedure. EC50 were calculated using Dotmatics software.
(A reporter such as luciferase makes a cellular process visible.)

For experiment [3], the system named is 786-O cells. The experiment is described as follows: VEGF ELISA Assay. It is filed as cell-based. As to conditions: Homo sapiens, 786-0; VEGF concentration in culture medium of 786-O cells. The protocol: Example 9: VEGF ELISA Assay
About 7500 786-O cells in 180 μL of growth medium were seeded into each well of a 96-well, white, clear bottom plate (07-200-566, Fisher Scientific) on day one in the layout presented in FIG. 1.
Four hours later, serial dilutions of 10× compound stocks were made in growth medium from 500×DMSO stocks, and 20 μL of those 10× stocks were added to each well to make final concentrations as follows (μM): 20, 6.67, 2.22, 0.74, 0.25, 0.082, 0.027, 0.009, 0.003, 0.001, and 0. Each concentration was plated in duplicate. About 20 hours later, medium was removed by suction and each well was supplied with 180 μL of growth medium. About 20 μl freshly-made 10× compound stocks were added to each well. […] The EC50 was calculated by GraphPad Prism using the dose-response-inhibition (four parameter) equation. The cell-seeded plate was then subjected to CellTiter-Glo luminescence cell viability assay (Promega) by adding 50 μL of Celltiter Glo reagent into each well and shaking the plate for 8 minutes at 550 rpm (Thermomixer R, Eppendorf) then the luminescence signal immediately read in a plate reader (3 second delay, 0.5 second/well integration time, Synergy 2 multi Detection Microplate reader).
For orientation: ELISA stands for enzyme-linked immunosorbent assay.

T1 sequence (Q99814 239-348): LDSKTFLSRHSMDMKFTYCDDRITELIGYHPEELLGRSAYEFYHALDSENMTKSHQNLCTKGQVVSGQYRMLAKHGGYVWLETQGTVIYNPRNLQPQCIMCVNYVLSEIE

Turning to `N#Cc1cc(F)cc(Oc2ccc3c4c2C(F)CC4(F)CS3(=O)=O)c1` (centres unmarked) [Compound 1], the EC50 (as a rule, the midpoint of the concentration-response curve) in experiment [1] is over 1000 nM.
`N#Cc1cncc(Oc2ccc3c4c2C(F)CC4(F)C(F)(F)S3(=O)=O)c1` (centres unmarked) [Compound 2]: the EC50 in experiment [1] is over 1000 nM.
Turning to `C=C1CC2(N)c3c(ccc(Oc4cc(F)cc(C#N)c4)c31)S(=O)(=O)C2(F)F` (centres unmarked) [Compound 3, 3-((2a-amino-2,2-difluoro-4-methylene-1,1-dioxido-2,2a,3,4-tetrahydroindeno[7,1-bc]thiophen-5-yl)oxy)-5-fluorobenzonitrile], the concentration for a half-maximal effect (EC50) was 50 to 249 nM in experiment [1] and 250 to 1000 nM in experiment [2].
Taken in the same sequence, the figures for `N#Cc1cc(F)cc(Oc2ccc3c4c2CCC4(O)C(F)(F)S3(=O)=O)c1` (centres unmarked) [Compound 4] were 50 to 249 nM and 50 to 249 nM.
The corresponding values for `N#Cc1cc(F)cc(Oc2ccc3c4c2C(F)C(F)C4(O)CS3(=O)=O)c1` (centres unmarked) [Compound 5] are over 1000 nM and over 1000 nM.
Regarding `N#Cc1cc(F)cc(Oc2ccc3c4c2C(F)CC4(O)C(F)(F)S3(=O)=O)c1` (centres unmarked) [Compound 6, 3-fluoro-5-((2,2,4-trifluoro-2a-hydroxy-1,1-dioxido-2,2a,3,4-tetrahydroindeno[7,1-bc]thiophen-5-yl)oxy)benzonitrile], the results for the EC50 in experiment [3], in experiment [1] and in experiment [2] were 50 to 249 nM, under 50 nM and under 50 nM, respectively.
Consider `N#Cc1cc(F)cc(Oc2ccc3c4c2C(F)CC4(O)CS3(=O)=O)c1` (centres unmarked) [Compound 7], for which the EC50 in experiment [1] is over 1000 nM.
With `CC1CC2(O)c3c(ccc(Oc4cc(F)cc(C#N)c4)c31)S(=O)(=O)C2(F)F` (centres unmarked) [Compound 8, 3-((2,2-difluoro-2a-hydroxy-4-methyl-1,1-dioxido-2,2a,3,4-tetrahydroindeno[7,1-bc]thiophen-5-yl)oxy)-5-fluorobenzonitrile], the EC50 in experiment [1] and in experiment [2] was 50 to 249 nM throughout.
Turning to `C=C1CC2(O)c3c(ccc(Oc4cncc(F)c4)c31)S(=O)(=O)C2(F)F` (centres unmarked) [Compound 9], the EC50 in experiment [1] and in experiment [2] was 250 to 1000 nM each time.
In the case of `N#Cc1cc(F)cc(Oc2ccc3c4c2C(F)CC4(F)C(F)(F)S3(=O)=O)c1` (centres unmarked) [Compound 10, 3-fluoro-5-((2,2,2a,4-tetrafluoro-1,1-dioxido-2,2a,3,4-tetrahydroindeno[7,1-bc]thiophen-5-yl)oxy)benzonitrile], in experiment [1], the EC50 fell in the range of 250 to 1000 nM.
For the compound `N#Cc1cc(F)cc(Oc2ccc3c4c2C(=O)CC4(O)C(F)(F)S3(=O)=O)c1` (centres unmarked) [Compound 11, 3-((2,2-difluoro-2a-hydroxy-1,1-dioxido-4-oxo-2,2a,3,4-tetrahydroindeno[7,1-bc]thiophen-5-yl)oxy)-5-fluorobenzonitrile], the EC50 in experiment [1] and in experiment [2] was 250 to 1000 nM in each case.
In experiment [1], `C=C1CC2(O)CS(=O)(=O)c3ccc(Oc4cc(F)cc(C#N)c4)c1c32` (centres unmarked) [Compound 12] yielded an EC50 of over 1000 nM.
Regarding `C=C1CC2(O)c3c(ccc(Oc4cc(F)cc(C#N)c4)c31)S(=O)(=O)C2(F)F` (centres unmarked) [Compound 13, 3-((2,2-difluoro-2a-hydroxy-4-methylene-1,1-dioxido-2,2a,3,4-tetrahydroindeno[7,1-bc]thiophen-5-yl)oxy)-5-fluorobenzonitrile], the EC50 in experiment [3], in experiment [1] and in experiment [2] was under 50 nM in each case.
Regarding `C=C1CC2(O)c3c(ccc(Oc4cncc(C#N)c4)c31)S(=O)(=O)C2(F)F` (centres unmarked) [Compound 14], the EC50 in experiment [1] was under 50 nM; in experiment [2] it was 250 to 1000 nM.
As for `N#Cc1cc(F)cc(Oc2ccc3c4c2[C@@H](F)C[C@]4(O)C(F)(F)S3(=O)=O)c1` [Compound 15], the EC50 in experiment [3], in experiment [1] and in experiment [2] was under 50 nM throughout.
For `N#Cc1cc(F)cc(Oc2ccc3c4c2C(F)C(F)C4(F)CS3(=O)=O)c1` (centres unmarked) [Compound 16], in experiment [1], the EC50 is over 1000 nM.
On the same count and under the same terms, to `C=C1CC2(O)c3c(ccc(OCC(F)F)c31)S(=O)(=O)C2(F)F` (centres unmarked) [Compound 17] belongs over 1000 nM.
Take `N#Cc1cc(F)cc(Oc2ccc3c4c2CCC4C(F)(F)S3(=O)=O)c1` (centres unmarked) [Compound 18]: the EC50 in experiment [1] lay within 50 to 249 nM; in experiment [2] it was 250 to 1000 nM.
The corresponding values for `N#Cc1cncc(Oc2ccc3c4c2C(F)CC4(O)C(F)(F)S3(=O)=O)c1` (centres unmarked) [Compound 19] are 50 to 249 nM and 250 to 1000 nM.
In experiment [1], `N#Cc1cc(F)cc(Oc2ccc3c4c2C(F)C[C@@]4(O)C(F)(F)S3(=O)=O)c1` (some centres unmarked) [Compound 20] displayed an EC50 of over 1000 nM.

For the origin of these results see patent US9796697B2, “Tricyclic inhibitors of HIF-2-alpha and uses thereof” (Peloton Therapeutics, Inc., priority 2015, dated 2017).
